# Source: patent US10669545B2, “Tumor cell malignant transformation suppressor and anti-tumor agent” (JAPAN SCIENCE AND TECHNOLOGY AGENCY, priority 2015, dated 2020)
# How the values were obtained:
# Type in all cases: cell-based, human
# SK-MEL-28 cells = experiment: Cell morphology after siRNA transfection, SK-MEL-28 cells; conditions: not shown
# A375 cells [1] = experiment: Cell proliferation / cell number count, A375 cells
# Method: In cell proliferation assay, A375 cells and SK-MEL-28 cells transfected with siZIC5#1, siZIC5#2, siNeg#1, or siNeg#2 described in Table 2 in the same manner as Example 1 were plated at 1,000 to 2,000 cells/well in 96-well plates. The number of cells transfected with each siRNA was measured over time. Regarding counting the number of cells, cell nuclei were stained with Hoechst 33342 (manufactured by Dojindo, Kumamoto, Japan), and the total cell number in each well was counted by using an IN Cell Analyzer 2000 (manufactured by GE Healthcare, Piscataway, N.J.).
# (§1) Furthermore, a cell cycle of each cell was examined with respect to A375 cells. An average value (SD) of percentages (%) of cells in G1 population, S population, and G2M population of each cell is shown in Table 9. […] As a result, percentages of cells in the S population and G2M population of A375 cells were reduced by PDGFD gene knockdown.
# In addition, the number of cells of A375 cells transfected with siPDGFD#1, siPDGFD#2, or siNeg#1 was successively counted. The statistical difference was determined using the Dunnett's multiple comparisons of means test (**: P<0.01, *: P<0.05).
# The result of a relative cell number (n=3) in which the number of cells of the cells treated with rat IgG was set to 1 is shown in FIG. 28. […]
# [2] = test system: stably Zic5 gene-expressed line (SK-MEL-28 cells); experiment: Transwell Migration Assay, stably Zic5 gene-expressed line; conditions: normalized to total viable cells; siNeg#1 set to 1
# Method: Specifically, the stably Zic5 gene-expressed line and the stably Flag-expressed line were seeded in a 24-well plate into which an insert with 8-μm sized pores (manufactured by BD Biosciences) was put and were cultured in RPMI 1640 medium containing 10% FBS, and then the number of migrated cells was counted.
# The influence of suppressing MLC2 phosphorylation on migration ability of cells was analyzed. Specifically, Transwell Migration Assay was performed in the same manner as above with the stably Zic5 gene-expressed line and the stably Flag-expressed line in a state of being treated or non-treated with a ROCK inhibitor (Y27632), and then the number of migrated cells was counted.
# The number of migrated cells was normalized to a total number of viable cells. A relative cell number (n=3) in which the number of migrated cells transfected with siNeg#1 of each cell was set to 1 is shown in FIG. 29. The statistical difference was determined by the Tukey's multiple comparisons of means test (**: P<0.01, *: P<0.05).
# A375 cells [3] = experiment: Cell cycle analysis (PI staining, flow cytometry), A375 cells; conditions: average value
# Method: In cell cycle analysis, first, the cells were cultured in serum-free medium for 24 hours and then cultured in media containing 10% FBS for 24 hours. Next, the cells were fixed, stained with propidium iodide (PI), and then flow cytometry analysis (SH800, manufactured by Sony) was performed. The obtained data was analyzed using analysis software, FlowJo (manufactured by TOMY DIGITAL BIOLOGY, Tokyo, Japan). As a result, a sub-G1 population of cells increased in the cells in which Zic5 gene knockdown occurred.
# as §1
substance,measurement,setting,value
"siPDGFD#1: siRNA for PDGFD gene; targeting sequence CAGGAATTACTCGGTCAATAT (SEQ. NO. 28) (listed as DNA, chemistry not given here)",morphological change of cells after siRNA transfection,SK-MEL-28 cells,morphological change occurred
same,"relative cell number (siNeg#1 set to 1), cell proliferation rate",A375 cells [1],decrease in cell proliferation rate
same,increase in the number of migrated cells by Zic5 gene overexpression,[2],completely suppressed
same,percentage of cells in G1 population,A375 cells [3],71.6%
same,percentage of cells in G2M population,A375 cells [3],18.6%
same,percentage of cells in S population,A375 cells [3],8.1%
